Source: patent US20030221207A1, “Cardiac-specific 11beta hydroxysteroid dehydrogenase type 2 transgenic mice” (Pharmacia Corporation, Global Patent Department, priority 2002, published 2003)

System: 11βhsd2 cardiac-specific transgenic mice
Assay: Eplerenone treatment of 11βhsd2 cardiac-specific transgenic mice, echocardiography
Format: in vivo, mouse
Details: male transgenic mice, chow containing eplerenone approx. 200 mg/kg/day from 4 weeks of age
Description: Starting at 4 weeks of age male transgenic mice were supplied with either chow containing eplerenone (approximate dose of 200 mg/kg/day) to eat or normal chow.
Echocardiograms were acquired using a Sonos 5500 echocardiographic system equipped with a 15-MHz linear-array transducer (Agilent, Andover, Mass.). Images were obtained from mice lightly anesthetized with 1-2% isoflurane (AErrane; Baxter, Inc., Deerfield, Ill.) lying in the left lateral decubitus position. Care was taken to maintain adequate contact while avoiding excessive pressure on the chest wall. Two-dimensional parasternal long and short-axis images of the left ventricle were obtained. Two-dimensional targeted M-mode tracings were recorded from the parasternal short-axis view at the level of the papillary muscles at a sweep speed of 150 mm/s. All echocardiograms were recorded digitally on a rewritable magneto-optical disk. Measurements and calculations used are as follows: Left Ventricular End diastolic (EDV) and systolic (ESV) volumes were calculated via the method of discs from direct measurement systolic (LVAs) and diastolic (LVAd) areas. Ejection Fraction (EF) was calculated from systolic and diastolic volumes with the following formula: EF=(EDV−ESV)/EDV×100. […] Heart rate (HR) was calculated by measuring the R-R interval in M-mode and using the formula: HR=60(sec/min)/R-R interval(sec/beat). […]

In the case of COC(=O)[C@@H]1CC2=CC(=O)CC[C@]2(C)[C@@]23O[C@@H]2C[C@@]2(C)[C@@H](CC[C@@]24CCC(=O)O4)[C@H]13 [eplerenone], the “development of left ventricular dysfunction and heart failure” value (2.5 months of treatment) is reported as “significantly attenuated” and the myocardial function (after 2.5 months of treatment, versus normal chow) is reported as “significantly improved”.
